Publication PMC7439413 (Science Advances, 2020)
Blank lines part the entries; values can stand above or below the compound they belong to.

Legend:
[1] = system: GRwt LBD-ligand complex / TIF2 peptide; assay: SPR: binding of GRwt-ligand complexes to immobilized TIF2 peptide; parameters: species or system human; settings: stated for both TIF2 and PRGC1
[2] = system: GRF602S-ligand-TIF2 complex; assay: CPMG relaxation dispersion NMR, GRF602S-ligand-TIF2; parameters: species or system human; settings: GRF602S-dex-TIF2; 13C CPMG, 14.1 and 18.8 T, 298 K
[3] = system: GRwt-ligand-PRGC1 complex; assay: CPMG relaxation dispersion NMR, GRwt-ligand-PRGC1; parameters: species or system human; settings: GRwt-dex-PRGC1; 13C CPMG, 18.8 T, 298 K
[4] = system: GRwt-ligand-TIF2 complex; assay: CPMG relaxation dispersion NMR, GRwt-ligand-TIF2; parameters: species or system human; settings: M752 13C CPMG, semiquantitative interpretation, 298 K
[5] = biological target: T1, human GR (Homo sapiens, UniProt P04150); assay: GR reporter gene assay; type: cell-based; settings: transactivation reporter gene assay, comparison among steroid ligands
T1 sequence (P04150 1-777): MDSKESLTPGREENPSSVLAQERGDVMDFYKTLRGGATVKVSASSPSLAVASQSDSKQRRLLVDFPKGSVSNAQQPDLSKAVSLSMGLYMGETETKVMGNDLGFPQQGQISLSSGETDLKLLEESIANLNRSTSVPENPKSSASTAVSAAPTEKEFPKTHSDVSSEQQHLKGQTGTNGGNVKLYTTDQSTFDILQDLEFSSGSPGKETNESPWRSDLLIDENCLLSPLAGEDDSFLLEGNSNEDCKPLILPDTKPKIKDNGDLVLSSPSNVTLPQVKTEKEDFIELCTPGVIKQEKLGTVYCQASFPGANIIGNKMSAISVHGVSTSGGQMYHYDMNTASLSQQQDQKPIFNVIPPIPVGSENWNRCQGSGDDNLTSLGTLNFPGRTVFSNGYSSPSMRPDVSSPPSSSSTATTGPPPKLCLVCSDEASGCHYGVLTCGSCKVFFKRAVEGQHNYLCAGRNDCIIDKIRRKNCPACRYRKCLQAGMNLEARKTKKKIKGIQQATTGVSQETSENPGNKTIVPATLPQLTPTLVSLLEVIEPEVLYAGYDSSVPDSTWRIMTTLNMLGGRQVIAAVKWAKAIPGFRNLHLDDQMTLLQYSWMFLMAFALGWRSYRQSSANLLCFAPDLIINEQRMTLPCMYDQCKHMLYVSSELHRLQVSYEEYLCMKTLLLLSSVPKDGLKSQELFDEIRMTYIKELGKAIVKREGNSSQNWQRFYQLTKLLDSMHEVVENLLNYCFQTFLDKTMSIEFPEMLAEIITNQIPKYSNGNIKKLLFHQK

[6] = biological target: GRwt LBD-ligand complex / PRGC1 peptide (Homo sapiens, UniProt P04150); assay: SPR: binding of GRwt-ligand complexes to immobilized PRGC1 peptide; settings: both GR constructs (GRwt and GRF602S), irrespective of ligand

coregulator-binding affinity rank of GRwt-ligand complex in words [1]: weakest affinity in both cases
Compound: C[C@]12CCC(=O)C=C1CC[C@@H]1[C@@H]2[C@@H](O)C[C@@]2(C)[C@H]1CC[C@]2(O)C(=O)CO [cortisol]

Compound: C[C@@H]1C[C@H]2[C@@H]3CCC4=CC(=O)C=C[C@]4(C)[C@@]3(F)[C@@H](O)C[C@]2(C)[C@@]1(O)C(=O)CO [dex, dexamethasone]
M565 relaxation dispersion in words [2]: shows relaxation dispersion in the GRF602S-dex-TIF2 complex, albeit of much lower amplitude
M752 relaxation dispersion in words [2]: marked relaxation dispersion profile
M565 relaxation dispersion in words [3]: does not show any dispersion

Compound: C[C@]12C=CC(=O)C=C1CC[C@@H]1[C@@H]2[C@@H](O)C[C@@]2(C)[C@H]1C[C@H]1O[C@@H](C3CCCCC3)O[C@]12C(=O)CO [dibC, desisobutyryl-ciclesonide]
population ratio of helix 12 conformations, pm/pM [4]: 0.1
coregulator-binding affinity rank of GRwt-ligand complex in words [1]: highest affinity for coregulator peptides
Agonist potency/efficacy in words [5]: partial agonist, dibC binds GR with high potency

affinity of GR constructs for coregulator in words [6]: higher affinity for PRGC1 than for TIF2
Compound: PPQEAEEPSLLKKLLLAPANT [PRGC1]
